In patent US20260294922A1, “Inhibitors of JUN N-Terminal Kinases (JNK1, JNK2, and/or JNK3) and Mitogen-Activated Protein Kinases (MAPK8, MAPK9, and/or MAPK10) and Methods of Using Same” (Baylor College of Medicine, priority 2023, published 2026):
Converted amounts (≈) assume the structure as drawn. “Also recorded” adds a separate entry of the source. Read-outs that look alike come from different tables or passages of the source.

Assays:
JNK2 [1] = target: T1, JNK2 (Homo sapiens, UniProt P45984); assay: Promega NanoBRET intracellular target engagement (tracer K10 displacement), JNK2; format: cell-based
JNK1 [2] = target: T2, JNK1 (Homo sapiens, UniProt P45983); assay: JNK1 biochemical assay (piperazine series)
Text: FIG. 21B depicts concentration-dependent inhibition of JNK1 with CDD-1722 and CDD-1723. Components of CDD-1722 and CD-1723 represent alternative building blocks which may be incorporated during optimization of pharmaceutical properties of JNK-I.

JNK3 [3] = target: T3, JNK3 (Homo sapiens, UniProt P53779); assay: Promega NanoBRET intracellular target engagement (tracer K10 displacement), JNK3; format: cell-based
JNK1 [4] = target: T2, JNK1; assay: Promega NanoBRET intracellular target engagement (tracer K10 displacement), JNK1; format: cell-based
CSNK1E = target: T4, CSNK1E (Homo sapiens, UniProt P49674); assay: ThermoFisher SelectScreen, CSNK1E; format: binding
T4 construct: purchased ThermoFisher (SelectScreen)

JNK3 [5] = target: T3, JNK3; assay: JNK3 kinase (intrinsic ATPase, Kinase-Glo) assay; format: biochemical
MEK4 = target: T5, MEK4 (Homo sapiens, UniProt P45985); assay: ThermoFisher SelectScreen, MEK4; format: binding
T5 construct: purchased ThermoFisher (SelectScreen)
T5 sequence (P45985 1-399): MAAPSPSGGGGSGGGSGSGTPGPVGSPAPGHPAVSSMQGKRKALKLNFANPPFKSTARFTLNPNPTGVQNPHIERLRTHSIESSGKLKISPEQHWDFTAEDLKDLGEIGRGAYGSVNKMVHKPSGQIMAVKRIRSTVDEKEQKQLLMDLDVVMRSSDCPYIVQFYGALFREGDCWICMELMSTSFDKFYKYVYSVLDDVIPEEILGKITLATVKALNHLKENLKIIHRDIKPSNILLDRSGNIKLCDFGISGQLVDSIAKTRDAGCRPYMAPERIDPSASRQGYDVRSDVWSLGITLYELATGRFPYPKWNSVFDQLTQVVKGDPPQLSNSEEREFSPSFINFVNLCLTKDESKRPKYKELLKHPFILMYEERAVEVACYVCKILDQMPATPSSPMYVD

MEK5 = target: T6, MEK5 (Homo sapiens, UniProt Q13163); assay: ThermoFisher SelectScreen, MEK5; format: binding; details: Table 4
T6 construct: purchased ThermoFisher (SelectScreen, outsourced service)
T6 sequence (Q13163 1-448): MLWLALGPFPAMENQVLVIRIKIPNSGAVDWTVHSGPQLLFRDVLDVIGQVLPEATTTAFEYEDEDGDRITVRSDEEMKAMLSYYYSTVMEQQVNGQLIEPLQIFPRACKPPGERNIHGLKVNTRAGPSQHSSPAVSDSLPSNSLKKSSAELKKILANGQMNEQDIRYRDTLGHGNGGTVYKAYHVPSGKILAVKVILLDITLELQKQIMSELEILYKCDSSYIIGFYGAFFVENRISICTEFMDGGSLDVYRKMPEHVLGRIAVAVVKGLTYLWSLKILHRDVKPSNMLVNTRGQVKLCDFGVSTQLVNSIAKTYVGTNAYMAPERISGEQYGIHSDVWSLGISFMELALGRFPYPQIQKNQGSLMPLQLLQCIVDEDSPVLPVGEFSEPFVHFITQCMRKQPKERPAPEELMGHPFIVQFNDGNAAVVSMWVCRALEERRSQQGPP
Method: (§1) To mitigate violation of the linear initial velocity principle, which is a problem in end-point assays when doing dose-responses, the enzyme concentration was carefully optimized, in a total assay volume of 25 μL. The assay was performed using 10 μM ATP, 0.02% Tween-20, kinase buffer from Cell Signaling (#9802) in white 384-well plates. The kinase reaction was done for 30 or 60 min at 30° C., and detection of leftover ATP was measured according to Promega's protocol. […] Fractional activities were obtained from normalized data. Non-linear regression (GraphPad Prism7) and a modified Morrison equation for tight binding was used to determine apparent Ki values for inhibitors, assuming no particular mode of inhibition. An orthogonal binding assay (LanthaScreen) was outsourced to ThermoFisher Scientific's SelectScreen Services to determine IC50 values.
(§2) One of the earliest compounds to be synthesized with favorable enzymatic activity towards JNK1 and JNK3 was CDD-2346. A KINOMEscan was performed for CDD-2346 to establish whether the selectivity of this chemical scaffold was suitable or required optimization. […] To confirm that the activity against each kinase was a true result and not a false positive, CDD-2346 was evaluated in kinase assays using ThermoFisher SelectScreen platform. The results from these assays are provided herein (Table 4). The important innovative steps described are the optimization of selectivity a) for JNK isoforms; b) for kinases considered “in-pathway”; and c) to avoid kinases considered “out-of-pathway”.

JNK1 [6] = target: T2, JNK1; assay: JNK1 kinase (intrinsic ATPase, Kinase-Glo) assay; format: biochemical
Procedure, shortened: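 Full-length construct not stated; kinases hydrolyse ATP without peptide substrate, reaction run 30 or 60 min at 30° C, remaining ATP read by Kinase-Glo luminescence with no-kinase controls. Apparent Ki from normalized fractional activities fitted to modified Morrison tight-binding equation; orthogonal LanthaScreen binding assay gave IC50.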

[7] = In vitro metabolism in mouse liver microsomes; details: mouse, microsomes
Method: (§3) The target product profile seeks to deliver JNK inhibitor as a once daily oral administration. To prioritize compounds for further development, in vitro metabolism of several CDD JNK inhibitors were determined to approximate the plasma half-life and the rate of metabolism of the compounds in vivo.

JNK3 [8] = target: T3, JNK3; assay: ThermoFisher SelectScreen, JNK3; format: binding
[9] = In vitro metabolism in human liver microsomes; details: human, microsomes
Method: as §3

JNK2 [10] = target: T1, JNK2; assay: JNK2 kinase (intrinsic ATPase, Kinase-Glo) assay; format: biochemical
hVPS34 = target: T7, hVPS34 (Homo sapiens, UniProt Q8NEB9); assay: ThermoFisher SelectScreen, hVPS34; format: binding; details: Table 4
T7 construct: purchased ThermoFisher (SelectScreen, outsourced service)
Method: as §1, §2

CLK2 = target: T8, CLK2 (Homo sapiens, UniProt P49760); assay: ThermoFisher SelectScreen, CLK2; format: binding
T8 construct: purchased ThermoFisher (SelectScreen)

CSNK1G1 = target: T9, CSNK1G1 (Homo sapiens, UniProt Q9HCP0); assay: ThermoFisher SelectScreen, CSNK1G1; format: binding; details: Table 4
T9 construct: purchased ThermoFisher (SelectScreen)
Method: as §1, §2
No activity of CDD-2728 was detected for Atypical, Mutant, or Lipid kinases. To confirm CDD-2728 inhibition results in the KINOMEscan analysis, individual binding assays were performed on the kinases to which CDD-2728 bound using ThermoFisher SelectScreen.

CSNK1D = target: T10, CSNK1D (Homo sapiens, UniProt P48730); assay: ThermoFisher SelectScreen, CSNK1D; format: binding
T10 construct: purchased ThermoFisher (SelectScreen)

HepG2 cells = assay: HepG2 cell viability (ATP consumption); details: CDD-2575 25 μM; CDD-2728, CDD-2624 up to 75
Method: This assay reflects cell viability. […] To determine if the responses observed in endometriotic epithelial cells and endometriotic stromal cell cultures were cytotoxic, cell viability was performed in HepG2 cells.

Other MAPK = assay: Eurofins KdSelect, other MAPK; format: binding; details: Table 2; IC50 nM; read-out: Other MAPK, based on Kd select results
Text: The next step was to confirm that the compounds that bound to JNK1, JNK2 or JNK3 in a competitive manner, relative to bentamapimod, were inhibitors of the ATP-dependent kinase activity in assays. In many cases, the results have been replicated at ThermoFisher using their SelectScreen technology platform. Based on knowledge about JNK inhibitors, and the results of DEC-Tec selections, a target compound profile was developed (Table 2).
The efficacy and selectivity of BEND and TANZ were used to define a realistic preliminary target compound profile (Table 2) for the next generation of JNK1-3 inhibitors for the treatment of endometriosis.

[11] = cited from earlier work; for clinical safety: Phase 1 volunteers / IPF
[12] = system: immortalized human endometriotic epithelial cells (iHEEC); assay: Phosphorylation of JNK and Jun in iHEEC; format: cell-based
Text: FIG. 26A depicts the effects of CDD-2728 and CDD-3013 on phosphorylation of the JNK enzyme itself (i.e., representing MEK4 inhibition) and phosphorylation of pSer63 and pSer73 on the transcription factor Jun in immortalized human endometriotic epithelial cells (iHEEC). The HEEC cells are a well characterized cell line that are relevant for the evaluation of inflammatory endpoints and measures of epithelial-to-mesenchymal transitions (EMT). […] This is consistent with the potency relationships of CDD-2728 relative to bentamapimod observed in cytokine gene expression described above in iHEEC cells and primary human stromal endometriotic cells. […] SP600125 has been frequently described as a poorly-selective JNK-I but in this context provides additional confirmation of inhibition of the JNK target kinase for CDD-2728. […] This adds further support to the critical role of JNK-1 to the therapeutic effect of the JNK inhibitors of the disclosure.

LATS1 [13] = target: T11, LATS1 (Homo sapiens, UniProt O95835); assay: KINOMEscan, LATS1; format: binding; details: 1 μM
LATS1 [14] = target: T11, LATS1; assay: ThermoFisher Z'Lyte assay, LATS1; format: biochemical
Text: Inhibition of LATS1 was not confirmed in a subsequent ThermoFisher Z'Lyte assay.

T2 sequence (P45983 whole entry): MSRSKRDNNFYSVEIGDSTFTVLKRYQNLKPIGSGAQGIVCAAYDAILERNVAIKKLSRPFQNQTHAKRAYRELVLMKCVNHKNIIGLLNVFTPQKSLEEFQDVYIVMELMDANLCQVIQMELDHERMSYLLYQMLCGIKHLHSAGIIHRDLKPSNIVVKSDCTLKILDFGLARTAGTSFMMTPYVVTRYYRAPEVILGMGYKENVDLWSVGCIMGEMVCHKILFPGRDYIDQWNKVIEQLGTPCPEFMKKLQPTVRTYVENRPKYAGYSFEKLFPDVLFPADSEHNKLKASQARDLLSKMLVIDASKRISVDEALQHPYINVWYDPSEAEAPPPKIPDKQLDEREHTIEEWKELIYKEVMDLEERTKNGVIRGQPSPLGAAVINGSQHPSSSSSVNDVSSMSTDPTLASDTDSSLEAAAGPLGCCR
T3 sequence (P53779 whole entry): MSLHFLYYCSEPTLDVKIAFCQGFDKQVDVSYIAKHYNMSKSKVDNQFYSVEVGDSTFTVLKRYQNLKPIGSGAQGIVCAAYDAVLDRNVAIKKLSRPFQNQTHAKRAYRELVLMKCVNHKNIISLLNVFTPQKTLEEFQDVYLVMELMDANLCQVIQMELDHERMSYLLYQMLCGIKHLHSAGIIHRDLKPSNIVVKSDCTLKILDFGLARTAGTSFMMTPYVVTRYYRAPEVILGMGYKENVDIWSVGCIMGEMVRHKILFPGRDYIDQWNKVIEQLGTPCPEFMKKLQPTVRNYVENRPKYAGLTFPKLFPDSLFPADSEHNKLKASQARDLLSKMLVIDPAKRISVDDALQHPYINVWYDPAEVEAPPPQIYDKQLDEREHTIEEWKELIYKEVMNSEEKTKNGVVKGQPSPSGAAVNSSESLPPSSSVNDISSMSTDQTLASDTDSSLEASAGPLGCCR
T1 sequence (P45984 whole entry): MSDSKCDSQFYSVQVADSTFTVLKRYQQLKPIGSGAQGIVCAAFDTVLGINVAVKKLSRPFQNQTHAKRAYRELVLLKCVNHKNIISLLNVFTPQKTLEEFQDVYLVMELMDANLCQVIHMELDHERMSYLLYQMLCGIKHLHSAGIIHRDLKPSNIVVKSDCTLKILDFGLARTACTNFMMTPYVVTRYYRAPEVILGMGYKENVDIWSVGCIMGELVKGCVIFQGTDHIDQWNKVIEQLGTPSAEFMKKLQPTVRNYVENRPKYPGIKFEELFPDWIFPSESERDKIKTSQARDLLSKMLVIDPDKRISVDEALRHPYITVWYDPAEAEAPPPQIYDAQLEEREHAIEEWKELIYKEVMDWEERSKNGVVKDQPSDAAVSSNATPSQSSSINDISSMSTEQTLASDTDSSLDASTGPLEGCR
T11 sequence (O95835 whole entry): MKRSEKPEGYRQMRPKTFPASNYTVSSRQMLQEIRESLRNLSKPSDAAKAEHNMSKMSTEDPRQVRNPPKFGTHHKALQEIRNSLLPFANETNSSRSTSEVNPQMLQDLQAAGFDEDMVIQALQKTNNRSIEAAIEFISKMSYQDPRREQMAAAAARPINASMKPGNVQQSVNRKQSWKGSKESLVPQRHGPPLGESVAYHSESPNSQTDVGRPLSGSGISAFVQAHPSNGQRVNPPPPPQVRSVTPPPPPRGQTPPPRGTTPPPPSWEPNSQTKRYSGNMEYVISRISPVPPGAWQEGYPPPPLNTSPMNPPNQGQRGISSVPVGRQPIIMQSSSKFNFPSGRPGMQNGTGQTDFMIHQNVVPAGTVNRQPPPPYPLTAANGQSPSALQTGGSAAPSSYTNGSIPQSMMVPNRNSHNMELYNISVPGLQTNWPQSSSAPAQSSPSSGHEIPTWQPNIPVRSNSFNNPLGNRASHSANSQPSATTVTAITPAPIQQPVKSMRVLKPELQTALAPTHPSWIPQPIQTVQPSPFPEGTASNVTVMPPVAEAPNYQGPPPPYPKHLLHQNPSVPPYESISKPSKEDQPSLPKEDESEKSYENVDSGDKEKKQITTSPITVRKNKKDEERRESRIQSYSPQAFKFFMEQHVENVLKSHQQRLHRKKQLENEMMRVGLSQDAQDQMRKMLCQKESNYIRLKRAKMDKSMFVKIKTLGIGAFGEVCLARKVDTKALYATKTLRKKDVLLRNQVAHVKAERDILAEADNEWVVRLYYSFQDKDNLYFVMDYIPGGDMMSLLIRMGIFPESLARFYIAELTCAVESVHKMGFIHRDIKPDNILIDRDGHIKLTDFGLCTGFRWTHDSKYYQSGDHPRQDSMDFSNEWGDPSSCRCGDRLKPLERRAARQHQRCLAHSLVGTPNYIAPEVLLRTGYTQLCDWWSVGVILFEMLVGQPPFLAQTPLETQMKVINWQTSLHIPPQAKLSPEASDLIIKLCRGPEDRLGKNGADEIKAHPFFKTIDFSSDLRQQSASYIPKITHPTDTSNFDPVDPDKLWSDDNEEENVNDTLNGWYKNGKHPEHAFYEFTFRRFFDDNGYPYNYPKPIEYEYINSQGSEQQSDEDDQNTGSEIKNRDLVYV
T7 sequence (Q8NEB9 whole entry): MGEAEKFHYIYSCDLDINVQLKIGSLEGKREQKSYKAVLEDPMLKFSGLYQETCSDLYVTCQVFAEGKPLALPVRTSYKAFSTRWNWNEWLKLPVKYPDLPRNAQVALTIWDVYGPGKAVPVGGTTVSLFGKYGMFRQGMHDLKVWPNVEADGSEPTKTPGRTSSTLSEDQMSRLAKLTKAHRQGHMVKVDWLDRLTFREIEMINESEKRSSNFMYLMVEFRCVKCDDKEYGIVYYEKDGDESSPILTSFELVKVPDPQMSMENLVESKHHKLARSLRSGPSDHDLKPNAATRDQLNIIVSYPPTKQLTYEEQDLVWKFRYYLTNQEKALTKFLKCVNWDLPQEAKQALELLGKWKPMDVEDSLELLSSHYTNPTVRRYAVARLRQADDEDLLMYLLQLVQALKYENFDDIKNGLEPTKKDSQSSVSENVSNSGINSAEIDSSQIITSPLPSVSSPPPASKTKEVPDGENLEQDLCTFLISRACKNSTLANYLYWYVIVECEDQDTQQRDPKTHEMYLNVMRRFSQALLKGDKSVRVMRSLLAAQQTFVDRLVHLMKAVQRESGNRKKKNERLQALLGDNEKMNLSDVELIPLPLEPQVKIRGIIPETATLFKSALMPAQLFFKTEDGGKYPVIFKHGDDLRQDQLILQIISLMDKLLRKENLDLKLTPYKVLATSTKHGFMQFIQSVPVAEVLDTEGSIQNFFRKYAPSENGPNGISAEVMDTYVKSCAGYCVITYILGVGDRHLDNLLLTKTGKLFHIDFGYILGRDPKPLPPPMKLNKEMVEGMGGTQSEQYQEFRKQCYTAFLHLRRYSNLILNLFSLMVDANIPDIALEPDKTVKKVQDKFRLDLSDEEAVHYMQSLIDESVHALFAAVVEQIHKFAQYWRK
T10 sequence (P48730 whole entry): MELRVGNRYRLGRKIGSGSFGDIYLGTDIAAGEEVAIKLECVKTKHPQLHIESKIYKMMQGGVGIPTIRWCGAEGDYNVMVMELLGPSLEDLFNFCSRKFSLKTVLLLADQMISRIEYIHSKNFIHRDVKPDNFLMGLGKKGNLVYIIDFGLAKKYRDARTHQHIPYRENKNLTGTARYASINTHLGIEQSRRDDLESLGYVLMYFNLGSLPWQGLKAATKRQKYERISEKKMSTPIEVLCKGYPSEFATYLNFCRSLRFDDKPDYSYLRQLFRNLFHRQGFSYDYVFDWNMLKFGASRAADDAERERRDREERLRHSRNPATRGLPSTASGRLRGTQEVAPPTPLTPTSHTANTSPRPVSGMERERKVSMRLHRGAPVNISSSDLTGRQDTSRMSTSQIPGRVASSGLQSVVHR
T4 sequence (P49674 whole entry): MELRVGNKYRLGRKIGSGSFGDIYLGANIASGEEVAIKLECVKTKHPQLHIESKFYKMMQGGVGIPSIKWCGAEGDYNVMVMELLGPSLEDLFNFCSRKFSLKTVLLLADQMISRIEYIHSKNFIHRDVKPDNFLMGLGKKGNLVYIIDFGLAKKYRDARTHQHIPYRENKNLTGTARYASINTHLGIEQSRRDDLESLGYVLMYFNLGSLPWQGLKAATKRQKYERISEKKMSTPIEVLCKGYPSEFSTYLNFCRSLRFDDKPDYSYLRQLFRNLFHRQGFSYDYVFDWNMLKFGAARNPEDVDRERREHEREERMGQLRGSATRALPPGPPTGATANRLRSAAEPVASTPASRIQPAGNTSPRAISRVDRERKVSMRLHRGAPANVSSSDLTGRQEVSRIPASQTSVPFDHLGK
T8 sequence (P49760 whole entry): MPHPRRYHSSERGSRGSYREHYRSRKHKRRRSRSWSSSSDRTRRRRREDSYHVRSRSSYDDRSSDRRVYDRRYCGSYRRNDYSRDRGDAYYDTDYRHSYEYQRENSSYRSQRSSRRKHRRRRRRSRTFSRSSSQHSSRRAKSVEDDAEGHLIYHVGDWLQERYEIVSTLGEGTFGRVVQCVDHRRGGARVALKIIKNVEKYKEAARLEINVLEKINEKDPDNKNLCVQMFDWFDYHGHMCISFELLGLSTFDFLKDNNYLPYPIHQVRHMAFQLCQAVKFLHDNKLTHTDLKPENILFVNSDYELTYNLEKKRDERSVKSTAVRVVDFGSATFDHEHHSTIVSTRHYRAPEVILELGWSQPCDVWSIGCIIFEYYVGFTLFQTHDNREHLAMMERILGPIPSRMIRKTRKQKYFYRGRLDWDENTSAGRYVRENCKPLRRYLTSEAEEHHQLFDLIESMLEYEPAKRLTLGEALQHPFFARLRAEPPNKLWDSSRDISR

Row | IC50 (JNK2 [1]) [µM] | IC50 (JNK3 [3]) [µM] | IC50 (JNK1 [4]) [µM] | solubility (Solubility) [µM] | Kd (JNK3 [5]; Table 3a, read-out: Kd JNK3) [µM] | Kd (MEK4) [µM] | Kd (JNK1 [6]) [µM] | half-life [7] [h] | Kd (JNK3 [8]) [µM] | half-life [9] [h] | Kd (JNK2 [10]; Table 3a, read-out: Kd JNK2) [µM] | Kd (hVPS34) [µM] | Compound | further results
1 | 32 | 38 | 24 | – | – | – | – | – | – | – | – | – | CNC(=O)CN1[C@H](CCNC(=O)OCc2ccccc2)CN(Cc2cccc3ccnn23)C[C@H]1CC(=O)NCCCN(C)c1ccc(F)cc1 [CDD-1723, benzyl (2-((2R,6R)-6-(2-((3-((4-fluorophenyl)(methyl)amino)propyl)amino)-2-oxoethyl)-1-(2-(methylamino)-2-oxoethyl)-4-(pyrazolo[1,5-a]pyridin-7-ylmethyl)piperazin-2-yl)ethyl)carbamate] | JNK1 inhibition (JNK1 [2]; in words): good inhibition of JNK1
2 | – | – | – | – | – | – | – | – | – | – | – | – | CNC(=O)CN1[C@@H](CCNC(=O)OCc2ccccc2)CN(Cc2cccc3ccnn23)C[C@@H]1CC(=O)NCCCN(C)c1ccc(F)cc1 [CDD-2009, benzyl (2-((2S,6S)-6-(2-((3-((4-fluorophenyl)(methyl)amino)propyl)amino)-2-oxoethyl)-1-(2-(methylamino)-2-oxoethyl)-4-(pyrazolo[1,5-a]pyridin-7-ylmethyl)piperazin-2-yl)ethyl)carbamate] | JNK1 activity relative to CDD-1723 (fold less active) (JNK1 [2]; enantiomer comparison): 20 fold
3 | – | – | – | 254 (≈ 94.8 µg/mL) | 0.00844 ± 0.00066 | 0.262 | 0.00296 ± 0.00032 | 2.01 | 0.0084 | 2.04 | 0.0288 ± 0.0018 | 0.13 | CNCc1ccc(NC(=O)c2ccn3ncc(-c4cnc(N)nc4)c3c2)cc1 [CDD-2387, 3-(2-aminopyrimidin-5-yl)-N-(4-((methylamino)methyl)phenyl)pyrazolo[1,5-a]pyridine-5-carboxamide] | Kd (CSNK1E): 2.66 µM; Kd (MEK5): 40.7 µM
4 | – | – | – | 2.5 (≈ 1.28 µg/mL) | – | 0.0602 | 0.00028 | 0.26 | 0.00141 | 0.213 | – | 38 | COc1ccc(NC(=O)c2cc3c(-c4cnc5[nH]ccc5c4)cccc3s2)cc1C(=O)N1CCCCC1 [CDD-2491, N-(4-methoxy-3-(piperidine-1-carbonyl)phenyl)-4-(1H-pyrrolo[2,3-b]pyridin-5-yl)benzo[b]thiophene-2-carboxamide] | Kd (CLK2): 1.17 µM; Kd (CSNK1G1): 95 µM; Kd (CSNK1D): 8.35 µM; Kd (JNK3 [5]): 0.00141 ± 0.00012 µM; Kd (JNK2 [10]): 0.00043 ± 9e-05 µM
5 | 2.3 | 4.8 | 2.2 | 40.6 (≈ 16.7 µg/mL) | 0.00276 ± 0.00051 | – | 0.00115 ± 0.00028 | 1.95 | – | 6.81 | 0.00176 ± 0.00015 | – | CNCc1ccc(NC(=O)c2cc3c(-c4cnc5[nH]ccc5c4)cccc3s2)cc1 [CDD-2575, N-(4-((methylamino)methyl)phenyl)-4-(1H-pyrrolo[2,3-b]pyridin-5-yl)benzo[b]thiophene-2-carboxamide] | effect on HepG2 cell viability / ATP consumption (HepG2 cells): non-specific decreases in cell viability were pronounced for CDD-2575 at 25 μM; also recorded: reduced ATP consumption
6 | – | – | – | – | – | – | – | – | – | – | – | – | O[C@H]1CC[C@H](Nc2ncc3nc(Nc4c(F)cc(F)cc4F)n([C@H]4CCOC4)c3n2)CC1 [CDD-985, tanzisertib] | Kd (Other MAPK): > 1000 nM; effect in preclinical IPF models and human IPF patients ([11]; IPF): reduced inflammation, EMT, and fibrosis; clinical safety ([11]; listed as TANZ): adverse liver effect; clinical safety ([11]; listed as Tanzisertib): deemed safe; phosphorylation of Jun at pSer63 and pSer73 [12]: lack of efficacy; LATS1 inhibition in KINOMEscan (LATS1 [13]): weakly inhibited; LATS1 inhibition in Z'Lyte assay (LATS1 [14]): not confirmed
